Where a name gives a salt, the structure may show the parent alone.
Tests used:
Assay type in all cases: in vitro ADME
[1] = MatTek EpiAirway cell monolayer permeability of local anesthetics after excipient pre-treatment; settings: human, pH 6, EpiAirway, 10 mM test article, donor pH 6.0, 37° C., 0.5 hr; excipient: none
[2] = as above; settings: human, pH 6, EpiAirway, 10 mM test article, donor pH 6.0, 37° C., 0.5 hr
Procedure: The EpiAirway™ cell line is derived from normal human respiratory airway cells and models the mucosal tissue in the nasal cavity's respiratory airway, the main site of drug absorption following intranasal administration.
EpiAirway™ tissues were treated with the excipients (0.5% sodium caprate, 0.5% sodium deoxycholate, 0.5% polyoxyethylene 9 lauryl ether, and 0.5% lysophosphatidylcholine) for 20 min. The excipients were then washed off the EpiAirway™ tissues. […] The receiver wells contained standard transport buffer. The fluorescent marker Lucifer Yellow and atenolol (10 μM) were also included to monitor monolayer integrity at the end of the assay. The plates were incubated at 37° C. for 30 min. An aliquot of the receiver chamber was removed for analysis.
At the end of the incubation period, the donor plate was removed from the receiver plate. The donor and receiver samples were analyzed and quantified by LC-MS/MS (propranolol used as internal LC-MS standard).
To verify the monolayer integrity, aliquots of the cell buffers were analyzed by fluorescence and LC-MS/MS to determine the transport of the impermeable dye Lucifer Yellow and atenolol, respectively.
(§1) Data are expressed as permeability (Papp): Papp=(dQ/dt)/C0A
(§2) Where dQ/dt is the rate of permeation, C0 is the initial concentration of test agent, and A is the area of the monolayer.
For mass spectroscopy method development, the signal was optimized for each compound by electrospray ionization (ESI) in positive ionization mode. An MS2 scan was used to optimize the precursor ion mass, and an SIM scan was used to optimize the fragmenter voltage. Product ion analysis was used to identify the best fragment and collision energy for analysis.
Following MRM method optimization, a test injection was performed and an ionization ranking was assigned indicating the compound's ease of ionization.
(§3) Samples were analyzed by LC/MS/MS using an Agilent 6410 mass spectrometer coupled with an Agilent 1200 HPLC and a CTC PAL chilled autosampler, all controlled by MassHunter software (Agilent). After separation on a C18 reverse phase HPLC column (Agilent Zorbax StableBond 3.5 um, 2.1×30 mm) using an acetonitrile-water gradient, peaks were analyzed by mass spectrometry using ESI ionization in MRM mode. Diclofenac was utilized as an analytical internal standard (IS).

[3] = tested on: Caco-2 cell monolayer; experiment: Caco-2 cell monolayer apical to basolateral permeability of local anesthetic after excipient pre-treatment; settings: Caco-2; sodium caprate 0.2-2.0% versus no excipient; dose dependent
Procedure: (§4) A first experiment was performed to test the ability of a mucosal absorption enhancer to promote transport of a local anesthetic agent across a mucosal epithelial cell monolayer. In this experiment, the Caco-2 cell line (an intestinal mucosal cell line) was grown and maintained at a pH of 6.0 for the length of time sufficient to establish tight junctions between the cells in the monolayer. After formation of the monolayer, sodium caprate was administered to the apical side of the Caco-2 cell monolayer at a concentration depending on the given test sample. After 20 minutes, the sodium caprate was washed off of the monolayer. Tetracaine hydrochloride was then administered to the apical side of the Caco-2 cell monolayer at a concentration of 10 mM. An additional test sample including tetracaine but lacking sodium caprate was also administered to the apical side of a separate Caco-2 cell monolayer as a control. The assay duration was 30 minutes. The apical to basolateral permeability rate coefficient of tetracaine across the Caco-2 cell monolayer was determined by LC/MS/MS for each test composition. The permeability rate coefficient (Papp) was based on the percent of the drug that is transported across the epithelial monolayer as a function of time and surface area of the monolayer. Drug permeability across the Caco-2 cell monolayers is a well-known model of transmucosal drug absorption in humans.
(§5) Caco-2 cells grown in tissue culture flasks were trypsinized, suspended in medium, and the suspensions were applied to wells of a Millipore 96 well Caco-2 plate. The cells were allowed to grow and differentiate for three weeks, feeding at 2-day intervals.
(§6) The Caco-2 cells were treated with the excipient (sodium caprate) for 20 minutes at concentrations of 0.2%, 0.5%, 1.0%, and 2.0%. The excipient was then washed off of the Caco-2 cell monolayer. For Apical to Basolateral (A→B) permeability, the test agent (10 mM Tetracaine HCl) was added to the apical (A) side and amount of permeation was determined on the basolateral (B) side. The A-side buffer contained 100 μM Lucifer Yellow (LY) dye and 10 μM Atenolol, in Transport Buffer (1.98 g/L glucose in 10 mM HEPES, 1× Hank's Balanced Salt Solution without Mg2+ and Ca2+) pH 6.0 for test articles. The B-side buffer was standard Transport Buffer, pH 7.4. Caco-2 cells were incubated with these buffers for 0.5 hr, and the receiver side buffer was removed for analysis by LC/MS/MS (propranolol used as internal LC/MS standard).
(§7) To verify that the Caco-2 cell monolayers were properly formed (and remained intact during the assay), aliquots of the cell buffers were analyzed by fluorescence and LC/MS/MS to determine the transport of the impermeable dye Lucifer Yellow and atenolol, respectively. Any deviations from control values are reported.
as §1, §2
(§8) For analytical method development, the analyte signal was optimized for each compound by ESI positive or negative ionization mode. An MS2 scan or an SIM scan was used to optimize the fragmenter voltage and a product ion analysis was used to identify the best fragment for analysis, and the collision energy was optimized using a product ion or MRM scan. An ionization ranking was assigned indicating the compound's ease of ionization.
as §3, with “μm,” for “um,”, “gradient system,” for “gradient,”, “spectrometry (MS)” for “spectrometry”, “mode.” for “mode. Diclofenac was utilized as an analytical internal standard (IS).”

[4] = as above; settings: human, Caco-2, pH 6, Caco-2, A→B, 10 mM Tetracaine HCl, apical pH 6.0, 0.5 hr
Procedure: as §4, §5, §6, §7, §1, §2, §8
as §3, with “μm,” for “um,”, “gradient system,” for “gradient,”, “spectrometry (MS)” for “spectrometry”, “mode.” for “mode. Diclofenac was utilized as an analytical internal standard (IS).”

[5] = 20 min pre-treatment with 0.5% Lysophosphatidylcholine
[6] = 20 min pre-treatment with 0.5% Polyoxyethylene 9 Lauryl Ether
[7] = 20 min pre-treatment with 0.5% Sodium Caprate
[8] = 20 min pre-treatment with 0.5% Sodium Deoxycholate

| Compound | Papp A→B at 30 min, 10 mM [1] [×10⁻⁶ cm/s] | Papp A→B at 30 min, 10 mM [2, 5] [×10⁻⁶ cm/s] | Papp A→B at 30 min, 10 mM [2, 6] [×10⁻⁶ cm/s] | Papp A→B at 30 min, 10 mM [2, 7] [×10⁻⁶ cm/s] | Papp A→B at 30 min, 10 mM [2, 8] [×10⁻⁶ cm/s] | effect of sodium caprate on permeability across a mucosal epithelial cell monolayer [3] | Papp A→B at 0.5 hr, 10 mM ([4]; 20 min pre-treatment with 0.2% Sodium Caprate) [×10⁻⁶ cm/s] | Papp A→B at 0.5 hr, 10 mM [4, 7] [×10⁻⁶ cm/s] | Papp A→B at 0.5 hr, 10 mM ([4]; 20 min pre-treatment with 1.0% Sodium Caprate) [×10⁻⁶ cm/s] | Papp A→B at 0.5 hr, 10 mM ([4]; 20 min pre-treatment with 2.0% Sodium Caprate) [×10⁻⁶ cm/s] | Papp A→B at 0.5 hr, 10 mM ([4]; excipient: None) [×10⁻⁶ cm/s] |
| --- | --- | --- | --- | --- | --- | --- | --- | --- | --- | --- | --- |
| CCCCN1CCCCC1C(=O)Nc1c(C)cccc1C (stereo not shown) [Bupivacaine, Bupivacaine HCl] | 19.2 | 173 | 189 | 116 | 218 |  |  |  |  |  |  |
| CCCCNc1ccc(C(=O)OCCN(C)C)cc1 [Tetracaine, Tetracaine HCl] | 10.8 | 71.6 | 126 | 56.8 | 155 | significantly improved the permeability | 32.2 | 55.9 | 54.8 | 139 | 17.7 |

Source: patent publication US20190133930A1, “Methods of Anesthetizing Nerve Tissue in the Trigeminal Nerve Pathway and Medical Uses Thereof” (Apollonia, LLC, priority 2014, published 2019)
